Laboratory results: patent US6589954B1, “Compounds and methods to treat cardiac failure and other disorders” (Scios, Inc., priority 1998, dated 2003)
Several values for one entry are separate records, joined by “and”; a condition that tells them apart may be missing. Identical values can stand only once. Like-named read-outs stand apart in the source and are kept apart here.

How the values were obtained:
Type in all cases: biochemical
p38α = p38α (Homo sapiens, UniProt Q16539); experiment: Assay for p38 kinase inhibition (p38α);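 note: radiometric p38 kinase assay, peptide substrate phosphorylation with γ-32P-ATP, 40 min at room temperature, incorporated counts measured by scintillation, inhibition relative to uninhibited kinase activity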
p38β = p38β (Homo sapiens, UniProt Q15759); experiment: p38 kinase inhibition assay, p38β
Protocol: The compounds to be tested were solubilized in DMSO and diluted into water to the desired concentrations. The p38 kinase was diluted to 10 μg/ml into a buffer containing 20 mM MOPS, pH 7.0, 25 mM beta-glycerol phosphate, 2 mg/ml gelatin, 0.5 mM EGTA, and 4 mM DTT.
The reaction was carried out by mixing 20 μl test compound with 10 μl of a substrate cocktail containing 500 μg/ml peptide substrate and 0.2 mM ATP (+200 μCi/ml gamma-32P-ATP) in a 4×assay buffer. The reaction was initiated by the addition of 10 μl of p38 kinase. Final assay conditions were 25 mM MOPS, pH 7.0, 26.25 mM beta-glycerol phosphate, 80 mM KCl, 22 mM MgCl2, 3 mM MgSO4, 1 mg/ml gelatin, 0.625 mM. […] After a 40 minute incubation at room temperature, the reaction was stopped by the addition of 10 μl per reaction of 0.25 M phosphoric acid.
A portion of the reaction was spotted onto a disk of P81 phosphocellulose paper, the filters were dried for 2 minutes and then washed 4× in 75 mM H3PO4. The filters were rinsed briefly in 95% ethanol, dried, then placed in scintillation vials with liquid scintillation cocktail.
Alternatively, the substrate is previously biotinylated and the resulting reactions are spotted on SAM^2TM streptavidin filter squares (Promega). The filters are washed 4× in 2M NaCl, 4× in 2M NaCl with 1% phosphoric acid, 2× in water, and briefly in 95% ethanol. The filter squares are dried and placed in scintillation vials with liquid scintillation cocktail.
(§1) Counts incorporated are determined on a scintillation counter. Relative enzyme activity is calculated by subtracting background counts (counts measured in the absence of enzyme) from each result, and comparing the resulting counts to those obtained in the absence of inhibitor. IC50 values were determined with curve-fitting plots available with common software packages. Approximate IC50 values were calculated using formula
(§2) where A=fractional activity and i=total inhibitor concentration.
Activity with regard to p38β was also tested for compounds of the invention to determine the influence of the position of the piperidinyl or piperazinyl substituent. The influence of substitution on the benzyl moiety attached to the 4-position of the piperazine or piperidine was also tested.

cdc2 = cdc2 (Homo sapiens, UniProt P06493); experiment: Kinase specificity, cdc2; details: approximate IC50; tested at 50 μM, calculated using the formula in Example 22
Protocol: as §1, §2
(§3) The specificity of the compounds of the invention was also tested with respect to other kinases, including p38-γ, ERK-2, PKA, PKC, cdc-2, EGF-R, and DNA-PK as shown in Table 4. The compounds tested are the 4-benzylpiperidinyl indole-5- and 6-carboximides with the number indicating the ring position of the carboxamide.
(§4) The exception is for p38α values where the IC50 values were determined from concentration dependent curve fitting analysis.

ERK-2 = ERK-2 (Homo sapiens, UniProt P28482); experiment: Kinase specificity, ERK-2; details: approximate IC50; tested at 50 μM, calculated using the formula in Example 22
Protocol: as §1, §2, §3, §4

DNA-PK = DNA-PK (Homo sapiens, UniProt P78527); experiment: Kinase specificity, DNA-PK; details: approximate IC50; tested at 50 μM, calculated using the formula in Example 22
Protocol: as §1, §2, §3, §4

p38-γ = molecular target: T1, p38-γ (Homo sapiens, UniProt P53778); experiment: Kinase specificity, p38-γ; details: approximate IC50; tested at 50 μM, calculated using the formula in Example 22
T1 sequence (P53778 1-367): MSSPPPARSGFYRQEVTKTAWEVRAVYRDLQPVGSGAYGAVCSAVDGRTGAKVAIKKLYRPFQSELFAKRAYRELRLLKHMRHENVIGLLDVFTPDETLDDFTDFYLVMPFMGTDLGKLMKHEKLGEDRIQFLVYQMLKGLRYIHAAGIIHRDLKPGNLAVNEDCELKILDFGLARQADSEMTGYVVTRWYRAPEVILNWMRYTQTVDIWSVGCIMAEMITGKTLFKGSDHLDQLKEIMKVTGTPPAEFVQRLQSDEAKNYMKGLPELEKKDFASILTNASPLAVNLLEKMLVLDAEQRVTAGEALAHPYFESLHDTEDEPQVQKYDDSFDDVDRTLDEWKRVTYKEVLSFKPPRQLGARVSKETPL
Protocol: as §1, §2, §3, §4

PKC = experiment: Kinase specificity, PKC; details: approximate IC50; tested at 50 μM, calculated using the formula in Example 22
Protocol: as §1, §2, §3, §4

EGF-R = EGF-R (Homo sapiens, UniProt P00533); experiment: Kinase specificity, EGF-R; details: approximate IC50; tested at 50 μM, calculated using the formula in Example 22
Protocol: as §1, §2, §3, §4

PKA = PKA (Homo sapiens, UniProt P17612); experiment: Kinase specificity, PKA; details: approximate IC50; tested at 50 μM, calculated using the formula in Example 22
Protocol: as §1, §2, §3, §4

[1] = Table 5, read-out: IC50, inhibition of p38α
[2] = at 50 μM concentration of the compound, Table 3
[3] = Table 1, by ring position of the piperidinyl or piperazinyl substituent on indole, read-out: IC50 for inhibition of p38α
[4] = at 50 μM concentration of the compound, Table 3, read-out: percent inhibition of p38β activity

Sequence of p38β (Q15759 whole entry): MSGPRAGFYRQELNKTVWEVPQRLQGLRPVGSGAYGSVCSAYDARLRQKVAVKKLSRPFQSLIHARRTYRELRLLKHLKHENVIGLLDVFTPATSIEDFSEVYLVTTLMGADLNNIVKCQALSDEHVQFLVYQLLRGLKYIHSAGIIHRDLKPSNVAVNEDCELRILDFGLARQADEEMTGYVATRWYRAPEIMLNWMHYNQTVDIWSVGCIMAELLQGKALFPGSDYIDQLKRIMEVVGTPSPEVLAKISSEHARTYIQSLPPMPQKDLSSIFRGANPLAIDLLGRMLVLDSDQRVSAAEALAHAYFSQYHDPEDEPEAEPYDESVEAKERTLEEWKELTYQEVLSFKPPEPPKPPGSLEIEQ
Sequence of p38α (Q16539 whole entry): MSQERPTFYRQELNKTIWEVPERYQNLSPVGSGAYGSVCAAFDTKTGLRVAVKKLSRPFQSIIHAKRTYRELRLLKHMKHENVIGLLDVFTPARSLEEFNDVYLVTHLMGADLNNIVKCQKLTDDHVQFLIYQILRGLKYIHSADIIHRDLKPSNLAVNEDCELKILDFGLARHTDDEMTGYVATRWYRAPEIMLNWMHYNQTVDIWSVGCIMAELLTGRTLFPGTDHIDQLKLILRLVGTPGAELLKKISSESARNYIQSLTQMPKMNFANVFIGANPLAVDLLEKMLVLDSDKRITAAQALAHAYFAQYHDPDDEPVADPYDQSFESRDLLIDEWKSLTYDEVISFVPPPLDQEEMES
Sequence of cdc2 (P06493 whole entry, species assumed): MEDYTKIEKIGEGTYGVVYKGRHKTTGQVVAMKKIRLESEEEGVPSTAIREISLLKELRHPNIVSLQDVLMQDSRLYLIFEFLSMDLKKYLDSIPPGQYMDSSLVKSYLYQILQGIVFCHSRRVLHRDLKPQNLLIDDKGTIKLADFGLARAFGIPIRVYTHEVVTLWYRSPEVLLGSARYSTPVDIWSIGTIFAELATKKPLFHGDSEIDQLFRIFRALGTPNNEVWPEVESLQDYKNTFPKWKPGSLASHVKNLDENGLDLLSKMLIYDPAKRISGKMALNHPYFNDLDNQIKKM
Sequence of cdc2 (P14635 whole entry partner, species assumed): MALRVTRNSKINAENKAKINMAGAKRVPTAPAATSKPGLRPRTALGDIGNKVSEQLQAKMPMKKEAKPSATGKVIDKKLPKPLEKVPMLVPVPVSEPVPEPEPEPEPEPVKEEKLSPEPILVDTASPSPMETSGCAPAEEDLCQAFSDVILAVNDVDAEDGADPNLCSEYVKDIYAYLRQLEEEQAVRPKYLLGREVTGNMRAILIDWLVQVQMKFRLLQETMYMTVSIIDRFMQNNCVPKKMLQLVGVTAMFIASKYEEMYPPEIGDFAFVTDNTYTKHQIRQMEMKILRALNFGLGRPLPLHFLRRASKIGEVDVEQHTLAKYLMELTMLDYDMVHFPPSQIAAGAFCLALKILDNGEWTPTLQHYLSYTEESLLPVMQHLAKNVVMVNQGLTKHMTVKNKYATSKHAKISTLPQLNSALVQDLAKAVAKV
Sequence of ERK-2 (P28482 whole entry, species assumed): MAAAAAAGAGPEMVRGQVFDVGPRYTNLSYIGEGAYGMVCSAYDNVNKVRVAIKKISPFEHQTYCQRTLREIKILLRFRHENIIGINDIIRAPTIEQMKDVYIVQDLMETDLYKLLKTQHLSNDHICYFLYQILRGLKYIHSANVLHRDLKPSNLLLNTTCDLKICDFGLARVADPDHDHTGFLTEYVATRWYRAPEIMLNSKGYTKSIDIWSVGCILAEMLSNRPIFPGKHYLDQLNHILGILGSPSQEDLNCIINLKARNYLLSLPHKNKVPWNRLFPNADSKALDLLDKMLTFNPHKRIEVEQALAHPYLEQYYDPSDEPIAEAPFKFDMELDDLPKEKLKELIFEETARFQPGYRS
Sequence of EGF-R (P00533 25-1210, species assumed): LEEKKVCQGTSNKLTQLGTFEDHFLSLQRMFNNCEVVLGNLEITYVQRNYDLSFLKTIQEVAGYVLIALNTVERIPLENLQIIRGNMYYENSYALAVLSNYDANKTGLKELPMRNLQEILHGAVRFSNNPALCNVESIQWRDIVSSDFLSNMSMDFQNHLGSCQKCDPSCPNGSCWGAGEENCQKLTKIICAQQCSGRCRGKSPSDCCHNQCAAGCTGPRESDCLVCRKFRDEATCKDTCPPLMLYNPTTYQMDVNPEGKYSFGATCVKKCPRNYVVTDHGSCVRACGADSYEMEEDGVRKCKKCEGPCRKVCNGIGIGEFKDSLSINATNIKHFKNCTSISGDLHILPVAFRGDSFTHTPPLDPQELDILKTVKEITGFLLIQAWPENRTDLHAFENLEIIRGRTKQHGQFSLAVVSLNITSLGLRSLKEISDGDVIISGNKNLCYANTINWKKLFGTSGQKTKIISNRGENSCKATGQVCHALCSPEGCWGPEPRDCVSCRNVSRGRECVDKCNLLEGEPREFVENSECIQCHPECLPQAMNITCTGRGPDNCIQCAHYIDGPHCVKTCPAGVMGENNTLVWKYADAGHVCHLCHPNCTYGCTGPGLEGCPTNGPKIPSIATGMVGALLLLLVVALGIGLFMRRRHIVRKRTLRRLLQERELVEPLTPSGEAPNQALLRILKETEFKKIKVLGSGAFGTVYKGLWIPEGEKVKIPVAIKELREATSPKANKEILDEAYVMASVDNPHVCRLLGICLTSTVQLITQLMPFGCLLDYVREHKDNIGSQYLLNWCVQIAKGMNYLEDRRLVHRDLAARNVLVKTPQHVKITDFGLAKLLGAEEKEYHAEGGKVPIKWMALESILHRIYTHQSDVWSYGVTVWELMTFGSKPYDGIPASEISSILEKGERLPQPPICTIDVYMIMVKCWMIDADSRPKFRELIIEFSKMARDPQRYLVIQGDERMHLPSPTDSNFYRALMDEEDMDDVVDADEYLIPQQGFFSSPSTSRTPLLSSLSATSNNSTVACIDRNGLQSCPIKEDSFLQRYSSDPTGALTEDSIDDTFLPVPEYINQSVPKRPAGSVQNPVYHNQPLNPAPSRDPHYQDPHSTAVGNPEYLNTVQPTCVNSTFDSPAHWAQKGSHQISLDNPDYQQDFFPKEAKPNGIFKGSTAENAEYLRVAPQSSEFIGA

Compound	IC50 (p38α; [1])	inhibition at 50 µM (p38β; [4])	also measured
O=C(c1ccc2[nH]cc(CN3CCOCC3)c2c1)N1CCC(Cc2ccccc2)CC1	6570 nM		
CC(=O)N1CCC(Cc2ccc(F)cc2)C1 (stereo not shown)			inhibition at 1 µM (p38α; at 1 μM): 51%
Cc1cc2c(Cl)c(C(=O)N3CCC(Cc4ccccc4)CC3)ccc2[nH]1	489 nM		inhibition at 0.2 µM (p38α; at 0.2 μM): 43%
O=C(c1ccc2[nH]cnc2c1)N1CCC(Cc2ccc(F)cc2)CC1	390 nM		
4-(4-Chlorobenzyl)piperazinyl-indole-5-carboxamide [Piperazinyl 5 4-Cl]			percent inhibition of p38β activity (p38β; [2]): 77%
CCN(CC)CCn1ccc2cc(C(=O)N3CCC(Cc4ccc(F)cc4)CC3)ccc21 [1-(Diethylamino)-ethyl-(4′-fluoro-4-benzylpiperidinyl)-indole-5-carboxamide]	354 nM		
CCN(CC)CCCn1ccc2cc(C(=O)N3CCC(Cc4ccccc4)CC3)c(Cl)cc21 [1-(Diethylamino)-n-propyl-6-chloro-(4-benzylpiperidinyl)-indole-5-carboxamide]	199 nM		
CCN(CC)CCCn1ccc2cc(C(=O)N3CCC(Cc4ccccc4)CC3)ccc21 [1-(Diethylamino)n-propyl-(4-benzylpiperidinyl)-indole-5-carboxamide]	474 nM		
CCN(CC)CCn1ccc2cc(C(=O)N3CCC(Cc4ccccc4)CC3)c(OC)cc21 [1-(Diethylaminoethyl)-6-methoxy-(4-benzylpiperidinyl)-indole-5-carboxamide]	184 nM		
O=C(c1ccc2c(C(=O)C(F)(F)F)c[nH]c2c1)N1CCC(Cc2ccccc2)CC1 [3-trifluoroacetyl-(4-benzylpiperidinyl)indole-6-carboxamide]			inhibition of p38α (p38α; at 1 μM): 41%
NC(=O)c1ccc2nc(N3CCN(Cc4cccc(Cl)c4)CC3)[nH]c2c1 [4-(3-chlorobenzyl)-piperazinyl-benzimidazole-5-carboxamide]			inhibition of p38β (p38β; compounds tested at 50 μM): 66%
O=C(c1ccc2[nH]cnc2c1)N1CCC(Cc2ccccc2)CC1 [4-Benzyl-piperidinyl-benzimidazole-5-carboxamide]	635 nM		inhibition at 50 µM (p38β; compounds tested at 50 μM, read-out: inhibition of p38β): 85%
COc1cc2[nH]cc(C(=O)NCCN(C)C)c2cc1C(=O)N1CCC(Cc2ccccc2)CC1 [6-methoxy-3-(2-dimethylaminoethylamino)carboxamidyl-(4-benzylpiperidinyl)indole-5-carboxamide]	64.6 nM		
COc1cc2[nH]ccc2cc1C(=O)N1CCC(Cc2ccc(F)cc2)CC1 [6-methoxy-(4-(4fluorobenzyl)piperidinyl)indole-5-carboxamide]	159 nM		
O=C(c1cc2ccccc2[nH]1)N1CCN(Cc2ccccc2)CC1 [Piperazinyl 2]		27%	IC50 (p38α; [3]): > 30000 nM
O=C(c1c[nH]c2ccccc12)N1CCN(Cc2ccccc2)CC1 [Piperazinyl 3]		77%	IC50 (p38α; [3]): 5440 nM
O=C(c1cccc2[nH]ccc12)N1CCN(Cc2ccccc2)CC1 [Piperazinyl 4]		68%	
O=C(c1ccc2[nH]ccc2c1)N1CCN(Cc2ccccc2)CC1 [Piperazinyl 5]		59%	
O=C(c1ccc2cc[nH]c2c1)N1CCN(Cc2ccccc2)CC1 [Piperazinyl 6]		56%	IC50 (p38α; [3]): 4970 nM
O=C(c1cccc2cc[nH]c12)N1CCN(Cc2ccccc2)CC1 [Piperazinyl 7]		7%	
O=C(c1cc2ccccc2[nH]1)N1CCC(Cc2ccccc2)CC1 [Piperidinyl 2]		12%	IC50 (p38α; [3]): 3260 nM
O=C(c1c[nH]c2ccccc12)N1CCC(Cc2ccccc2)CC1 [Piperidinyl 3]		96%	IC50 (p38α; [3]): 200 nM
O=C(c1cccc2[nH]ccc12)N1CCC(Cc2ccccc2)CC1 [Piperidinyl 4]		96%	IC50 (p38α; [3]): 200 nM
O=C(c1ccc2[nH]ccc2c1)N1CCC(Cc2ccccc2)CC1 [Piperidinyl 5, 4-Benzylpiperidinyl-indole-5-carboxamide]	523 nM and 577 nM	96%	IC50 (p38α; [3]): 242 nM
O=C(c1ccc2cc[nH]c2c1)N1CCC(Cc2ccccc2)CC1 [Piperidinyl 6, 4-benzylpiperidinyl-indole-6-carboxamide]			IC50 (cdc2): > 500000 nM; IC50 (ERK-2): > 300000 nM; IC50 (DNA-PK): 450000 nM; IC50 (p38-γ): > 300000 nM; IC50 (PKC): > 500000 nM; IC50 (EGF-R): > 500000 nM; percent inhibition of p38β activity (p38β; [2]): 92%; IC50 (PKA): > 500000 nM
O=C(c1cccc2cc[nH]c12)N1CCC(Cc2ccccc2)CC1 [Piperidinyl 7]		45%	IC50 (p38α; [3]): > 30000 nM
O=C(c1ccc2c(ccn2C(=O)c2ccncc2)c1)N1CCC(Cc2ccccc2)CC1 [drawing 82]	871 nM		
O=C(c1ccc2c(ccn2C(=O)c2ccncc2)c1)N1CCC(Cc2ccccc2)CC1 [drawing 83]	405 nM		
